Experimental data taken from the supplement of paper PMC10307832.

Tests used:
Experiment in all cases: relative viability (nuclei count vs DMSO), 5 days (fraction); higher = more cells survive
Imatinib + Navitoclax = compound: Cc1ccc(NC(=O)c2ccc(CN3CCN(C)CC3)cc2)cc1Nc1nccc(-c2cccnc2)n1 [Imatinib] + CC1(C)CCC(c2ccc(Cl)cc2)=C(CN2CCN(c3ccc(C(=O)NS(=O)(=O)c4ccc(N[C@H](CCN5CCOCC5)CSc5ccccc5)c(S(=O)(=O)C(F)(F)F)c4)cc3)CC2)C1 [Navitoclax] (partner 0.5 µM)
In short: (§1)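 Relative viability divides the nuclei count in treated wells by that in vehicle wells. Lung cancer cell lines were seeded in 1536-well plates, dosed by pin tool the next day, and fixed and stained after 5 days in one step with final 0.05% Triton X-100, 1% formaldehyde and 1 ug/ml Hoechst. Dosing was a single drug or a fixed anchor-drug dose plus five library-drug doses (not always all listed) in √10 steps, and values are medians of duplicate plates imaged at 4×.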

Imatinib + Pemetrexed = compound: Cc1ccc(NC(=O)c2ccc(CN3CCN(C)CC3)cc2)cc1Nc1nccc(-c2cccnc2)n1 [Imatinib] + Nc1nc2[nH]cc(CCc3ccc(C(=O)N[C@@H](CCC(=O)O)C(=O)O)cc3)c2c(=O)[nH]1 [Pemetrexed] (partner 0.2 µM)
In short: as §1

Imatinib + AZD7762 = compound: Cc1ccc(NC(=O)c2ccc(CN3CCN(C)CC3)cc2)cc1Nc1nccc(-c2cccnc2)n1 [Imatinib] + NC(=O)Nc1cc(-c2cccc(F)c2)sc1C(=O)N[C@H]1CCCNC1 [AZD7762] (partner 0.2 µM)
In short: as §1

Imatinib + Trametinib = compound: Cc1ccc(NC(=O)c2ccc(CN3CCN(C)CC3)cc2)cc1Nc1nccc(-c2cccnc2)n1 [Imatinib] + CC(=O)Nc1cccc(-n2c(=O)n(C3CC3)c(=O)c3c(Nc4ccc(I)cc4F)n(C)c(=O)c(C)c32)c1 [Trametinib] (partner 0.02 µM)
In short: as §1

Cell Line | relative viability (Imatinib + Navitoclax; first compound 0.02 µM) | relative viability (Imatinib + Navitoclax; first compound 0.06325 µM) | relative viability (Imatinib + Navitoclax; first compound 0.2 µM) | relative viability (Imatinib + Navitoclax; first compound 0.6325 µM) | relative viability (Imatinib + Navitoclax; first compound 2 µM) | relative viability (Imatinib + Pemetrexed; first compound 0.02 µM) | relative viability (Imatinib + Pemetrexed; first compound 0.06325 µM) | relative viability (Imatinib + Pemetrexed; first compound 0.2 µM) | relative viability (Imatinib + Pemetrexed; first compound 0.6325 µM) | relative viability (Imatinib + Pemetrexed; first compound 2 µM) | relative viability (Imatinib + AZD7762; first compound 0.02 µM) | relative viability (Imatinib + AZD7762; first compound 0.06325 µM) | relative viability (Imatinib + AZD7762; first compound 0.2 µM) | relative viability (Imatinib + AZD7762; first compound 0.6325 µM) | relative viability (Imatinib + AZD7762; first compound 2 µM) | relative viability (Imatinib + Trametinib; first compound 0.02 µM) | relative viability (Imatinib + Trametinib; first compound 0.06325 µM) | relative viability (Imatinib + Trametinib; first compound 0.2 µM) | relative viability (Imatinib + Trametinib; first compound 0.6325 µM) | relative viability (Imatinib + Trametinib; first compound 2 µM)
NCI-H647 | 1.42 | 1.36 | 1.14 | 1.12 | 1.17 | 0.18 | 0.183 | 0.192 | 0.202 | 0.158 | 0.708 | 0.519 | 0.383 | 0.383 | 0.381 | 0.512 | 0.414 | 0.563 | 0.365 | 0.458
NCI-H838 | 1.34 | 1.54 | 1.34 | 1.14 | 1.28 | 0.249 | 0.26 | 0.251 | 0.253 | 0.247 | 1.04 | 1.03 | 0.961 | 0.954 | 1.02 | 0.504 | 0.549 | 0.608 | 0.569 | 0.486
NCI-H1355 | 1.06 | – | 0.99 | 0.922 | 0.947 | 1.14 | – | 1.11 | 1.08 | 1.01 | 0.988 | – | 0.83 | 0.63 | 0.571 | 0.494 | – | 0.436 | – | 0.411
NCI-H1395 | 1.07 | – | 1.04 | 0.979 | 0.989 | 0.807 | – | 0.955 | 1.04 | 0.784 | 0.369 | – | 0.343 | 0.376 | 0.393 | 1.07 | – | 1.13 | 0.999 | 0.997
NCI-H1437 | 1.24 | 1.17 | 1.34 | 1.08 | 1.04 | 0.318 | 0.354 | 0.374 | 0.33 | 0.279 | 1.24 | 1.07 | 1.09 | 1.04 | 1.14 | 0.569 | 0.345 | 0.607 | 0.544 | 0.494
NCI-H1651 | 1.34 | 1.21 | – | 1.05 | 1.13 | 0.617 | 0.339 | 0.586 | 0.58 | 0.555 | 0.543 | 0.267 | 0.488 | 0.468 | 0.403 | 0.876 | 0.795 | 0.859 | 0.84 | 0.82
NCI-H1666 | – | 1.16 | 1.06 | 1.1 | 1.06 | 0.902 | 0.906 | 0.897 | 0.842 | 0.842 | 0.902 | 0.873 | 0.792 | 0.849 | 0.809 | 0.82 | 0.855 | 0.823 | 1.09 | 0.924
NCI-H1734 | 0.938 | – | 1.11 | 0.758 | – | 0.402 | – | 0.425 | 0.377 | 0.388 | 0.673 | – | 0.516 | 0.48 | 0.484 | 0.739 | – | 0.689 | 0.825 | 0.71
